Values quoted from earlier work as cited in patent publication US20160375049A1, “COMPOSITIONS” (GLOBALACORN LTD, priority 2013, published 2016).

Legend:
[1] = target: T1, P2X3 receptors (Homo sapiens, UniProt P56373)
T1 sequence (P56373 1-397): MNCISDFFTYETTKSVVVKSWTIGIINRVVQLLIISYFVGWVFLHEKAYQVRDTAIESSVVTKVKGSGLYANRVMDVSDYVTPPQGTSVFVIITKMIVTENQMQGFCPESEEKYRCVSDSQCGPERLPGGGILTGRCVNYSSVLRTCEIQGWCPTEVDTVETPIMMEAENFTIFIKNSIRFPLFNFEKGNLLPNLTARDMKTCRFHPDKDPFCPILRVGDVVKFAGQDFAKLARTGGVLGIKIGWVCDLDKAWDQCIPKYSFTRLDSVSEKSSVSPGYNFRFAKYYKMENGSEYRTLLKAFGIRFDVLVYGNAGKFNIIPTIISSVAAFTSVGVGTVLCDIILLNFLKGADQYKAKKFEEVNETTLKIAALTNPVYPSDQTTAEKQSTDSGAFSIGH

[2] = tested on: inflammatory and neuropathic pain models; conditions: systemic administration
[3] = tested on: acute noxious stimulation; conditions: in vivo
[4] = tested on: persistent pain; conditions: in vivo
[5] = tested on: nociception; conditions: in vivo

Row | Structure (SMILES) | binding to P2X3 receptors, concentration range [1] | nociception in inflammatory and neuropathic pain models [2] | activity in models of acute noxious stimulation [3] | persistent pain in formalin and acetic acid-induced abdominal constriction tests [4] | anti-nociception in animal models [5]
1 | O=C(O)c1cc(C(=O)O)c(C(=O)N(Cc2cccc(Oc3ccccc3)c2)[C@H]2CCCc3ccccc32)cc1C(=O)O [A-317491] | micromolar range | effectively reduced nociception | generally inactive | effectively blocked persistent pain | –
2 | COc1cc(Cc2cnc(N)nc2N)c(C(C)C)cc1OC [RO-3] | – | – | – | – | induce anti-nociception
